Measurements from PubChem BioAssay (NCI).
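Growth conditions: 96-well plates. Treatment: test compound, 48 hours, 5 concentrations. Analysis: linear interpolation between bracketing concentrations; unreached endpoints set to highest concentration. GI50 = concentration required for 50% inhibition of growth. At the TGI there is no net growth.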

Tests used:
Test in all cases: NCI-60 cell line screen, 48 h
NCI-H23 lung = tested on: NCI-H23 lung
BT-549 breast = tested on: BT-549 breast
OVCAR-3 ovarian = tested on: OVCAR-3 ovarian
TK-10 renal = tested on: TK-10 renal
PC-3 prostate = tested on: PC-3 prostate
A549 NSCLC = tested on: A549 NSCLC
SF-539 CNS = tested on: SF-539 CNS
UACC-62 melanoma = tested on: UACC-62 melanoma
OVCAR-5 ovarian = tested on: OVCAR-5 ovarian
K-562 leukemia = tested on: K-562 leukemia
HCC-2998 colon = tested on: HCC-2998 colon
ACHN renal = tested on: ACHN renal
UACC-257 melanoma = tested on: UACC-257 melanoma
T-47D breast = tested on: T-47D breast
KM12 colon = tested on: KM12 colon
MALME-3M melanoma = tested on: MALME-3M melanoma
IGROV1 ovarian = tested on: IGROV1 ovarian
MDA-MB-231 breast = tested on: MDA-MB-231 breast
SNB-19 CNS = tested on: SNB-19 CNS
HOP-62 NSCLC = tested on: HOP-62 NSCLC
HCT-15 colon = tested on: HCT-15 colon
OVCAR-8 ovarian = tested on: OVCAR-8 ovarian
SK-MEL-5 melanoma = tested on: SK-MEL-5 melanoma
HCT-116 colon = tested on: HCT-116 colon
UO-31 renal = tested on: UO-31 renal
EKVX NSCLC = tested on: EKVX NSCLC
SF-268 CNS = tested on: SF-268 CNS
NCI/ADR-RES ovarian = tested on: NCI/ADR-RES ovarian
DU-145 prostate = tested on: DU-145 prostate
NCI-H226 lung = tested on: NCI-H226 lung
RPMI-8226 leukemia = tested on: RPMI-8226 leukemia
SK-MEL-2 melanoma = tested on: SK-MEL-2 melanoma
MCF7 breast = tested on: MCF7 breast
SW-620 colon = tested on: SW-620 colon
SK-OV-3 ovarian = tested on: SK-OV-3 ovarian
M14 melanoma = tested on: M14 melanoma
SF-295 CNS = tested on: SF-295 CNS
U251 CNS = tested on: U251 CNS
NCI-H460 lung = tested on: NCI-H460 lung
786-0 renal = tested on: 786-0 renal
CAKI-1 renal = tested on: CAKI-1 renal
LOX IMVI melanoma = tested on: LOX IMVI melanoma
HT29 colon = tested on: HT29 colon
A498 renal = tested on: A498 renal
SR leukemia = tested on: SR leukemia
COLO 205 colon = tested on: COLO 205 colon
MDA-MB-435 = tested on: MDA-MB-435
OVCAR-4 ovarian = tested on: OVCAR-4 ovarian
MOLT-4 leukemia = tested on: MOLT-4 leukemia
SK-MEL-28 melanoma = tested on: SK-MEL-28 melanoma
HL-60(TB) leukemia = tested on: HL-60(TB) leukemia
SN12C renal = tested on: SN12C renal
SNB-75 CNS = tested on: SNB-75 CNS
NCI-H522 lung = tested on: NCI-H522 lung
CCRF-CEM leukemia = tested on: CCRF-CEM leukemia

CC12CCC(C(Nc3cc(C(F)(F)F)cc(C(F)(F)F)c3)C1=O)C2(C)C (centres undefined)
TGI (NCI-H23 lung): > 100 µM | TGI (BT-549 breast): > 100 µM | TGI (OVCAR-3 ovarian): > 100 µM | TGI (TK-10 renal): > 100 µM | TGI (PC-3 prostate): > 100 µM | TGI (A549 NSCLC): > 100 µM | TGI (SF-539 CNS): > 100 µM | TGI (UACC-62 melanoma): > 100 µM | TGI (OVCAR-5 ovarian): > 100 µM | TGI (K-562 leukemia): > 100 µM | TGI (HCC-2998 colon): > 100 µM | TGI (ACHN renal): > 100 µM | TGI (UACC-257 melanoma): > 100 µM | TGI (T-47D breast): > 100 µM | TGI (KM12 colon): > 100 µM | TGI (MALME-3M melanoma): > 100 µM | TGI (IGROV1 ovarian): > 100 µM | TGI (MDA-MB-231 breast): > 100 µM | TGI (SNB-19 CNS): > 100 µM | TGI (HOP-62 NSCLC): > 100 µM | TGI (HCT-15 colon): > 100 µM | TGI (OVCAR-8 ovarian): > 100 µM | TGI (SK-MEL-5 melanoma): > 100 µM | TGI (HCT-116 colon): > 100 µM | TGI (UO-31 renal): > 100 µM | TGI (EKVX NSCLC): > 100 µM | TGI (SF-268 CNS): > 100 µM | TGI (NCI/ADR-RES ovarian): > 100 µM | TGI (DU-145 prostate): > 100 µM | TGI (NCI-H226 lung): > 100 µM | TGI (RPMI-8226 leukemia): > 100 µM | TGI (SK-MEL-2 melanoma): > 100 µM | TGI (MCF7 breast): > 100 µM | TGI (SW-620 colon): > 100 µM | TGI (SK-OV-3 ovarian): > 100 µM | TGI (M14 melanoma): > 100 µM | TGI (SF-295 CNS): > 100 µM | TGI (U251 CNS): > 100 µM | TGI (NCI-H460 lung): > 100 µM | TGI (786-0 renal): > 100 µM | TGI (CAKI-1 renal): > 100 µM | TGI (LOX IMVI melanoma): > 100 µM | TGI (HT29 colon): > 100 µM | TGI (A498 renal): > 100 µM | TGI (SR leukemia): > 100 µM | TGI (COLO 205 colon): > 100 µM | TGI (MDA-MB-435): > 100 µM | TGI (OVCAR-4 ovarian): > 100 µM | TGI (MOLT-4 leukemia): > 100 µM | TGI (SK-MEL-28 melanoma): > 100 µM

Cc1cc(-c2nc3sccn3c2/C=N/N=C(N)N)c(C)s1
GI50 (HL-60(TB) leukemia): 15.6 µM | TGI (HL-60(TB) leukemia): > 100 µM | GI50 (NCI-H23 lung): 17.7 µM | TGI (NCI-H23 lung): 33.7 µM | GI50 (BT-549 breast): 18.5 µM | TGI (BT-549 breast): 33.3 µM | GI50 (OVCAR-3 ovarian): 13.2 µM | TGI (OVCAR-3 ovarian): 26 µM | GI50 (TK-10 renal): 17.4 µM | TGI (TK-10 renal): 31.5 µM | GI50 (PC-3 prostate): 13.4 µM | TGI (PC-3 prostate): 26.3 µM | GI50 (A549 NSCLC): 25.5 µM | TGI (A549 NSCLC): 51 µM | GI50 (SF-539 CNS): 14.3 µM | TGI (SF-539 CNS): 28.5 µM | GI50 (SN12C renal): 15.7 µM | TGI (SN12C renal): 30.9 µM | GI50 (UACC-62 melanoma): 14.9 µM | TGI (UACC-62 melanoma): 28.2 µM | GI50 (OVCAR-5 ovarian): 14 µM | TGI (OVCAR-5 ovarian): 26.9 µM | GI50 (K-562 leukemia): 15.1 µM | TGI (K-562 leukemia): 39.1 µM | GI50 (ACHN renal): 19.1 µM | TGI (ACHN renal): 36.8 µM | GI50 (UACC-257 melanoma): 18.9 µM | TGI (UACC-257 melanoma): 36.2 µM | GI50 (T-47D breast): 17.5 µM | TGI (T-47D breast): 32.8 µM | GI50 (KM12 colon): 13.3 µM | TGI (KM12 colon): 26.1 µM | GI50 (MDA-MB-231 breast): 15.3 µM | TGI (MDA-MB-231 breast): 29 µM | GI50 (SNB-19 CNS): 16.2 µM | TGI (SNB-19 CNS): 32.8 µM | GI50 (HOP-62 NSCLC): 17.4 µM | TGI (HOP-62 NSCLC): 32.1 µM | GI50 (HCT-15 colon): 16.4 µM | TGI (HCT-15 colon): 30 µM | GI50 (OVCAR-8 ovarian): 29.4 µM | TGI (OVCAR-8 ovarian): 57 µM | GI50 (SK-MEL-5 melanoma): 14.6 µM | TGI (SK-MEL-5 melanoma): 30 µM | GI50 (HCT-116 colon): 12.7 µM | TGI (HCT-116 colon): 25.3 µM | GI50 (UO-31 renal): 21.1 µM | TGI (UO-31 renal): 36.9 µM | GI50 (EKVX NSCLC): 10.5 µM | TGI (EKVX NSCLC): 23.4 µM | GI50 (SF-268 CNS): 16.6 µM | TGI (SF-268 CNS): 31.7 µM | GI50 (SNB-75 CNS): 15 µM | TGI (SNB-75 CNS): 30.2 µM | GI50 (NCI/ADR-RES ovarian): 17.4 µM | TGI (NCI/ADR-RES ovarian): 31.6 µM | GI50 (NCI-H522 lung): 15.7 µM | TGI (NCI-H522 lung): 32 µM | GI50 (DU-145 prostate): 14.2 µM | TGI (DU-145 prostate): 27.8 µM | GI50 (NCI-H226 lung): 15.4 µM | TGI (NCI-H226 lung): 31.7 µM | GI50 (RPMI-8226 leukemia): 13.3 µM | TGI (RPMI-8226 leukemia): 33.2 µM | GI50 (SW-620 colon): 21.8 µM | TGI (SW-620 colon): 54.5 µM | GI50 (SK-OV-3 ovarian): 17.5 µM | TGI (SK-OV-3 ovarian): 32.3 µM | GI50 (M14 melanoma): 15.8 µM | TGI (M14 melanoma): 29.3 µM | GI50 (SF-295 CNS): 13.5 µM | TGI (SF-295 CNS): 26.3 µM | GI50 (U251 CNS): 18 µM | TGI (U251 CNS): 32.9 µM | GI50 (NCI-H460 lung): 16.8 µM | TGI (NCI-H460 lung): 30.4 µM | GI50 (786-0 renal): 15.7 µM | TGI (786-0 renal): 29.1 µM | GI50 (LOX IMVI melanoma): 16.4 µM | TGI (LOX IMVI melanoma): 30.5 µM | GI50 (HT29 colon): 15.6 µM | TGI (HT29 colon): 33.8 µM | GI50 (CCRF-CEM leukemia): 16.6 µM | TGI (CCRF-CEM leukemia): 48 µM | GI50 (A498 renal): 18.8 µM | TGI (A498 renal): 33.9 µM | GI50 (MDA-MB-435): 13.3 µM | TGI (MDA-MB-435): 26.1 µM | GI50 (OVCAR-4 ovarian): 16.2 µM | TGI (OVCAR-4 ovarian): 35.3 µM | GI50 (MOLT-4 leukemia): 17.6 µM | TGI (MOLT-4 leukemia): 60.7 µM | GI50 (SK-MEL-28 melanoma): 16.5 µM | TGI (SK-MEL-28 melanoma): 31.5 µM
